Test results from paper PMC3144881, “Computational Reverse-Engineering of a Spider-Venom Derived Peptide Active Against Plasmodium falciparum SUB1” (PLoS ONE, 2011).

Assays:
[1] = test system: P. falciparum 3D7 segmented schizonts (egress/invasion); assay: Merozoite egress/invasion assay, synchronized schizonts, flow cytometry (YOYO-1); type: cell-based, Plasmodium falciparum; settings: 10 μM E64, 12 hr, 0.5% segmented schizonts, vs mock control
[2] = test system: P. falciparum 3D7 segmented schizonts (egress/invasion); settings: cited from earlier work
Procedure: A synchronised culture composed of segmented schizontes of P. falciparum (3D7 clone) at 0.5% parasitemia and 1% hematocrit is performed in a 24 wells plate. An aliquot corresponding to 10% of the starting culture (T ) is diluted in a solution at 0.04% of glutaraldehyde in PBS (Dulbecco) and store at 4 C for further flow cytometry analysis.

fungi, bacteria = settings: cited from earlier work
Source text: (§1) In addition to therapies based on small molecules such as chloroquine, artemisinins, quinine and atovaquone, the development of new classes of molecules based on proteins or peptidomimetics [8] is an active field of research. […] Choi et al. have isolated from the ven ...

human epithelial cells = settings: cited from earlier work
Source text: as §1

[3] = test system: P. falciparum clone 3D7 (asynchronous culture); settings: read-out: EC50 on the asynchronous culture of P. falciparum intra-erythrocytic cycle; ± 6 (SEM); clone 3D7, 0,5% parasitemia, 1% hematocrit, 48 hours contact, 10 μM hypoxanthine, 37 °C
Procedure: Asexual cultures of reference clone 3D7 obtained from MR4 (www.MR4.org) was maintained in continuous cultures following the method of Trager an Jensen, except that the medium was composed of RPMI 1640 medium supplemented with 10% decomplemented human serum (AB+), hypoxanthine 100 [drawing 51] M, gentamycin […]. Parasites were incubated at 37 [drawing 52] C in an atmosphere composed of 5%O [drawing 53] , 5%CO [drawing 54] and 90%N [drawing 55] . […] EC [drawing 57] have been determined following nonlinear regression analysis using HN-NonLin V1.1 software (http://malaria.farch.net).

P. falciparum = settings: intra-erythrocytic cycle; cited from earlier work
recombinant PfSUB1 [4] = biological target: T1, recombinant PfSUB1 (Plasmodium falciparum, UniProt Q8I0V0); assay: Enzymatic test: inhibition of recombinant PfSUB1, Dabsyl/Edans peptide substrate; type: biochemical; settings: translated from the measured PfSUB1 Ki
T1 construct: Culture supernatant containing the secreted and active PvSUB1 or PfSUB1 recombinant enzymes was harvested; 6xHis (C); made in house; host or cells: Sf9 insect cells (baculovirus)

[5] = biological target: T2, recombinant Plasmodium vivax SUB1 (PvSUB1) (Plasmodium vivax, UniProt E6Y8B9); set-up: method as in Bouillon et Giganti et al, in preparation; settings: ± 1,7; substrate cleaved between the two aspartates, Dabsyl/Edans; ref Bouillon et Giganti et al, in preparation; read-out: apparent Km of PvSUB1 for its substrate; cited from earlier work
T2 construct: Culture supernatant containing the secreted and active PvSUB1 or PfSUB1 recombinant enzymes was harvested; 6xHis (C); made in house; host or cells: Sf9 insect cells (baculovirus)

recombinant PfSUB1 [6] = biological target: T1, recombinant PfSUB1; set-up: method as in 2 sources, ref 22 = [22]; PMID 12764150; doi:10.1074/jbc.M303827200; 22 Jean L Hackett F Martin SR Blackman MJ 2003 Functional characterization of the propeptide of Plasmodium falciparum subtilisin-like protease-1. J Biol Chem 278 28572 9 12764150 10.1074/jbc.M30382720 ||| ref Bouillon et Giganti et al, in preparation; settings: ± 3,4; substrate cleaved between D and N, Dabsyl/Edans; ref Bouillon et Giganti et al, in preparation; read-out: apparent Km of PfSUB1 for its substrate; cited from earlier work
[7] = biological target: recombinant Plasmodium falciparum subtilisin-like serine protease SUB1 (PfSUB1), purified and active (Plasmodium falciparum) (UniProt Q8I0V0)
[8] = biological target: recombinant Plasmodium vivax SUB1 (PvSUB1), purified and active (Plasmodium vivax) (UniProt E6Y8B9); assay: enzyme inhibition assay (Dabsyl/Edans quenched fluorescent peptide substrate); 13 ng purified PvSUB1 or PfSUB1, 25 uM substrate, 20 mM Tris pH 7.5, 25 mM CaCl2, 37 C; inhibitor at ten concentrations from 1 mM to 2 uM; fluorescence read every 3 min for 90 min; N = 3
[9] = biological target: recombinant Plasmodium falciparum subtilisin-like serine protease SUB1 (PfSUB1), purified and active (Plasmodium falciparum) (UniProt Q8I0V0); assay: as above
[10] = biological target: recombinant Plasmodium falciparum subtilisin-like serine protease SUB1 (PfSUB1), purified and active (Plasmodium falciparum) (UniProt Q8I0V0); remark: listed apart in the source

Molecule: CC(C)C[C@H](NC(=O)[C@H]1O[C@@H]1C(=O)O)C(=O)NCCCCN=C(N)N (relative stereo) [E64, trans-Epoxysuccinyl-L-leucylamido(4-guanidino)butane]
- inhibition of newly formed trophozoites and equivalent segmented schizont accumulation [1]: 91.6%
- block of egress of P. falciparum merozoites in vitro [2]: known to block the egress of P. falciparum merozoites in vitro

Molecule: CC[C@H](C)[C@@H]1NC(=O)CNC(=O)[C@@H](NC(=O)[C@H](C)N)CSSC[C@@H]2NC(=O)[C@@H]3CSSC[C@@H](C(=O)N[C@@H](CC(C)C)C(=O)N[C@H](C(=O)N[C@@H](CCC(N)=O)C(=O)N[C@H](C(=O)N[C@@H](CO)C(=O)O)C(C)C)C(C)C)NC(=O)[C@H](CCCCN)NC(=O)CNC(=O)[C@H](Cc4ccc(O)cc4)NC(=O)[C@H](CCCNC(=N)N)NC(=O)[C@H](CSSC[C@H](NC(=O)[C@H](CC(N)=O)NC(=O)[C@H](CC(=O)O)NC(=O)[C@H](Cc4c[nH]cn4)NC(=O)[C@H](CC(C)C)NC1=O)C(=O)N[C@@H](C(C)C)C(=O)N[C@@H](Cc1ccc(O)cc1)C(=O)N[C@@H](C(C)C)C(=O)N1CCC[C@H]1C(=O)N[C@@H](C)C(=O)N[C@@H](CCC(N)=O)C(=O)N[C@@H](CC(N)=O)C(=O)N1CCC[C@H]1C(=O)N3)NC(=O)[C@H](CCC(N)=O)NC(=O)[C@H](CC(C)C)NC(=O)CNC(=O)[C@H](CCCNC(=N)N)NC2=O [PcFK1]
- antifungal or antibacterial activity (fungi, bacteria): no antifungal or antibacterial activity
- effect on growth or viability of human epithelial cells (human epithelial cells): nor do they affect the growth or viability of human epithelial cells
- EC50 [3]: 116 µM
- IC50, growth of P. falciparum (P. falciparum): low micromolar range
- free energy of binding translated from Ki value (recombinant PfSUB1 [4]): -6.37 kcal/mol

Molecule: KLVGADDVSLA [PvSUB1 peptide substrate with fluorophore/quencher Dabsyl/Edans at each edge]
- Km [5]: 19.7 µM

Molecule: KLVSADNIDIS [PfSUB1 peptide substrate with fluorophore/quencher Dabsyl/Edans at each edge]
- Km (recombinant PfSUB1 [6]): 30.2 µM

Molecule: Psalmopeotoxin I (PcFK1), chemically synthesized with an extra serine at the C-term (from UniProt P0C201 52-86) (peptide)
- inhibition of newly formed trophozoites (merozoite egress/invasion, synchronized P. falciparum culture, 12 hr, flow cytometry) at 200 uM PcFK1, compared to the mock control [7]: 56.2%
- Ki [8]: 36.3 µM
- Ki [9]: 29.3 µM
- EC50 of PcFK1 on the asynchronous culture of P. falciparum intra-erythrocytic cycle (clone 3D7, 48 hours with the drug) [10]: 116 µM
